Source: paper PMC10104254, “Development of a novel angiotensin converting enzyme 2 stimulator with broad implications in SARS-CoV2 and type 1 diabetes” (Research Square, 2023)
Peptide text beside a SMILES is read from it.

What was measured:
[1] = Pharmacokinetics and tissue distribution of 2A in normal mice; details: LC-MS/MS
Procedure: Wild-type C57BL/6J mice (male, 10–12 weeks old) were purchased from the Animal Resources Centre (Western Australia, Australia). All animals were housed within the University of Queensland Biological Resources animal facility in a pathogen-free environment with a 12 h dark/12 h light cycle and free access to food and water.
The pharmacokinetic (PK) profile and biodistribution of 2A peptide was assessed in mice (n=5; per route at a dose of 1 mg/kg) after intravenous (i.v; tail vein), subcutaneous (s.c; between the shoulders) and intranasal (i.n; 10μl in each nostril with total volume of 20μl) administration. Blood samples were collected at 10, 20, 30, 45, 60 mins, 2 h and 4 h after drug administration via the tail vein using a microsampling technique[27]. At the terminal time point (24 h post administration), animals were anaesthetised with zolazepam (50 mg/kg) and xylazine (12 mg/kg) via i.p. injection. Blood samples were then collected via cardiac puncture as well as tail bleed to validate the sampling protocol. Plasma was isolated from blood samples by centrifugation (2000 g for 10 min at 4 °C), and stored at −80 °C. Following blood collection at the termination time point, mice were immediately perfused transcardially with saline to remove blood from tissues. Harvested tissue samples were then weighed and homogenized in an equal weight volume of milliQ water. On the day of analysis, aliquots (5 μL) of thawed plasma samples and 100μL of tissue homogenates were mixed with internal standard (10 μL) and processed for peptide quantification using a semi-validated LC–MS/MS method as described previously[28].
Quantification of 2A peptide was performed using AcF-[OPdChaWR] peptide as an internal standard as described previously[28]. […] Concentrations of 2A peptide in samples was measured against known concentration of internal standard and peak area ratio of analyte to internal standard. […]

[2] = molecular target: T1, rhACE2 (Homo sapiens, UniProt Q9BYF1); experiment: ACE2-dependent breakdown of angiotensin II and formation of angiotensin 1-7 by LCMS; type: biochemical; details: 2A 1.7 μM, n=4
T1 construct: purchased R&D systems
Procedure: The effect of 2A on ACE2-mediated cleavage of angiotensin II was assessed using LCMS. rhACE2 (0.1 ng/μL) was incubated with 2A (1.7 μM) for 1 h at 37 °C. Angiotensin II (0.02 μg/μL) was then added. Aliquots of equal volumes were collected at T = 0, 3, 6 and 24-h. Aliquots were immediately acidified with trifluoroacetic acid (0.1% final). Samples were snap frozen in dry ice and lyophilized for analysis by LCMS.
Prior to loading, samples were reconstituted in 100 μL loading buffer. Samples were analysed using a quadrupole TOF mass spectrometer (MicroTOFq, Bruker Daltonics, Bremen, Germany) coupled online with a 1200 series nano HPLC (Agilent Technologies). Samples were loaded onto a zorbax 300SB reversed-phase trap column equilibrated with 95% buffer A (0.1% formic acid). The flow rate was set to 10 μL/min. The components were eluted over a 10 min gradient to 70% buffer B (80% acetonitrile, 0.1% formic acid) and peptides were separated on zorbax 300SB-C18 nano column (75 μm × 15 cm, 3.5 μm). The eluant was nebulised and ionised using the Bruker nano-ESI source with a capillary voltage of 4500 V, dry gas at 180° C, flow rate set at […] and nebuliser gas pressure at 300 mbar. The mass spectrometry acquisition was in selected ion monitoring mode after selected ion extraction of the mass spectrometry spectra. […]

[3] = Stability of 2A in cell culture (HEK293), LCMS; type: in vitro ADME; details: peptide 9 μM, 60 min; for remaining at 1 h, 9 μM: human, HEK293 cells in culture, HEK293 cells 20,000 cells/well, Opti-MEM reduced serum media, mean ± SEM, read-out: amount remaining in the medium of HEK293 cells at T60 min compared with T0 min
Procedure: HEK293 (passage 24) were seeded into tissue-culture-grade 96-well plates at a density of 20,000 cells/well. After 24 h, cells were washed with PBS and replaced with Opti-MEM reduced serum media containing amidated or non-amidated 2A (9 μM). Aliquots of equal volume were taken at T = 0 and 60 min. Amidated 2A was added to control wells having media (no cells) only. Samples were immediately acidified in 0.1% TFA, snap frozen in dry ice and stored in −80 °C until analyzed by LCMS.
Samples were analyzed by LC-MS/MS on a Shimadzu Nexera uHPLC (Japan) coupled to a Triple Tof 5600 mass spectrometer (ABSCIEX, Canada) equipped with a duo electrospray ion source. One μl of each extract was injected onto a 2.1 mm × 100 mm Zorbax C18 1.8um column (Agilent) at 200 μL/min. Linear gradients of 1–50% solvent B over 7 min at 200 μL/min flow rate, followed by a steeper gradient from 50% to 98% solvent B in 1 min were used for peptide elution. Solvent B was held at 98% for 3 min for washing the column and returned to 1% solvent B for equilibration prior to the next sample injection. Solvent A consisted of 0.1% formic acid (aq) and solvent B contained 90/10 acetonitrile/ 0.1% formic acid (aq). The ionspray voltage was set to 5500 V, declustering potential (DP) 100 V, curtain gas flow 25, nebuliser gas 1 (GS1) 50, GS2 to 60, interface heater at 150 °C and the turbo heater to 500 °C. The mass spectrometer acquired 500ms full scan high resolution, at 30,000 resolving power, TOF-MS data over the mass range […].
Both amidated and non amidated 2A were quantified using the [M+2H]^2+ doubly charged molecular ion from m/z 575.32 to 575.37.
The data was acquired using Analyst TF 1.6 and quantification was carried out using MultiQuant 2.1.1 software (ABSCIEX, Canada).

[4] = Streptozotocin (STZ) model of type 1 diabetes in mice; type: in vivo, C57Bl/6J mice
Procedure: Streptozotocin (STZ; 150 mg/kg; i.p) was used to induce type 1 diabetes in male C57BI/6J mice. Blood glucose was measured 1 week post STZ injection to confirm the presence of diabetes (BG levels > 15 mmol/L at 1 week post STZ injection was included in this study). After establishment of diabetes (T0), mice were randomly allocated to receive 2A (1 mg/kg/ day; 10% DMSO in saline) or vehicle (10% DMSO in saline) via subcutaneous minipumps for a period 3 months. Non fasting blood glucose levels were measured every 2 weeks until study end (T3), and body weight was measured daily, until study end. 24-h urine samples were collected at 1 month intervals since commencement of 2A or its vehicle. (Detailed Methods section is provided at the end of the Discussion).
Streptozotocin (STZ) is a widely used model of type I diabetes which closely mimic the human disease[31],[32]. Male C57Bl/6J mice were purchased from Animal Resources Centre (Western Australia, Australia) and these mice were acclimatized for at least one week prior to inducing diabetes. […] Mouse body weight was measured daily. Blood glucose levels were measured via tail bleed 1-week post-STZ injection to confirm the establishment of diabetes (CareSens N; iSENS, Seoul, Korea). […] Blood glucose levels were measured every 2 weeks until the end of the treatment period. […]

[5] = tested on: SARS-CoV-2; type: cell-based; details: 350 μM, pre-treated apically and basolaterally 1 h, then added every 12 h for 48 h; MOI 3; n=3 donors; versus PBS
[6] = molecular target: T1, rhACE2; parameters: method as in PMID 26931059; details: 20 amino acid peptide from Bothrops asper myotoxin; cited from earlier work

T1 sequence (Q9BYF1 18-805): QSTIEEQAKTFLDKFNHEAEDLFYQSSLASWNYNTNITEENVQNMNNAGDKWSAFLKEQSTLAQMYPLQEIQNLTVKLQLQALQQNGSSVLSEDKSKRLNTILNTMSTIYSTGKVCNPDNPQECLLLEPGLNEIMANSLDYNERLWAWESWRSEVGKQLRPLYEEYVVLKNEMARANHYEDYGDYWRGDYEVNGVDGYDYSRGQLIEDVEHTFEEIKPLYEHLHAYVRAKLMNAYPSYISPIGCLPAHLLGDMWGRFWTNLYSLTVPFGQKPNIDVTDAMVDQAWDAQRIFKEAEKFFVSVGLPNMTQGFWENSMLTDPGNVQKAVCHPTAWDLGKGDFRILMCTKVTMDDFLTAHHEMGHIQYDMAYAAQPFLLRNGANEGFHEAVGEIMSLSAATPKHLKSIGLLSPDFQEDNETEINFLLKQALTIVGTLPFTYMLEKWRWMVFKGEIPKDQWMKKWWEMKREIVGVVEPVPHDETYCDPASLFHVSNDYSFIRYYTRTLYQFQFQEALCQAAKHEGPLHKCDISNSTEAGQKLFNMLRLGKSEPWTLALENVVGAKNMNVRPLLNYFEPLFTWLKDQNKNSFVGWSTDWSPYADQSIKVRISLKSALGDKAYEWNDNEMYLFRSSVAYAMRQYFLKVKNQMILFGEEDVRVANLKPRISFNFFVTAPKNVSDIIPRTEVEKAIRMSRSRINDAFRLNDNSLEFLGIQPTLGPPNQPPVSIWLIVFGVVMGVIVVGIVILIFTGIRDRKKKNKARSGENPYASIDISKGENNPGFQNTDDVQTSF

CC[C@H](C)[C@H](NC(=O)[C@H](CCSC)NC(=O)[C@H](CCCCN)NC(=O)CNC(=O)[C@H](CC(C)C)NC(=O)[C@H](CCC(=O)O)NC(=O)[C@H](Cc1ccccc1)NC(=O)[C@H](CC(C)C)NC(=O)[C@@H](N)CO)C(=O)N[C@@H](CC(C)C)C(N)=O [2A] (H-SLFELGKMIL-NH2)
detection in plasma 24 h post administration ([1]; 1 mg/kg i.v., s.c. or i.n., C57BL/6J mice, n=5 per route): a small amount of peptide was still detected
clearance from the circulation ([1]; 1 mg/kg i.v., s.c. or i.n., C57BL/6J mice, plasma, n=5 per route): rapidly cleared from the circulation over the first 4h
tissue distribution 24-h post administration (heart, lung, spleen, kidney, brain and spinal cord) ([1]; 1 mg/kg, irrespective of the route (i.v., s.c., i.n.), tissue homogenates): detectable at low concentrations
increase of Ang 1-7 levels in the presence of ACE2 + 2A compared to ACE2 alone [2]: 165 ± 12%
reduction of Ang II levels in the presence of ACE2 + 2A ([2]; over a 24-h period, ACE2 alone 58 ± 4%): 83 ± 5%
remaining at 1 h, 9 μM [3]: 54 ± 4%
amount remaining in the cell culture medium in the absence of cells at T60 min ([3]; media only (no cells), Opti-MEM, possible adherence to plastic): 63 ± 14%
effects on organ weight ([4]; 2A 1 mg/kg/day, 3 months): minimal effects
untoward effects in animal models ([4]; pre-clinical animal models of this paper): did not observe any untoward effects

N=C(N)c1ccc(/N=N/Nc2ccc(C(=N)N)cc2)cc1 [DIZE, diminazene]
viral titres produced by epithelial cells at 48 hours post-infection [5]: not significantly different

CC[C@H](C)[C@H](NC(=O)[C@H](CCSC)NC(=O)[C@H](CCCCN)NC(=O)CNC(=O)[C@H](CC(C)C)NC(=O)[C@H](CCC(=O)O)NC(=O)[C@H](Cc1ccccc1)NC(=O)[C@H](CC(C)C)NC(=O)[C@@H](N)CO)C(=O)N[C@@H](CC(C)C)C(=O)O [non-amidated 2A] (H-SLFELGKMIL-OH; N-terminus assumed)
remaining at 1 h, 9 μM [3]: 29 ± 3%

20 amino acid peptide: synthetic peptide corresponding to the first 20 amino acids of Bothrops asper myotoxin II
effect on recombinant human ACE2 enzyme activity [6]: stimulates recombinant human ACE2 enzyme activity
